Data on four compounds can be found in publication PMC6023986, “Interactions Between Emodin and Efflux Transporters on Rat Enterocyte by a Validated Ussing Chamber Technique” (Frontiers in Pharmacology, 2018).

Like-named read-outs stand apart in the source and are kept apart here.

In data set [1] the test system is Caco-2 cell. More on the design: method as in Yu et al. (2017). As to conditions: Caco-2 cell culture model; ref Yu et al. (2017); cited from earlier work.
The subject of data set [2] is multidrug-resistant associated protein 2 (MRP2). More on the design: method as in Teng et al., 2007, 2012; Liu et al., 2012. As to conditions: ref Teng et al., 2007, 2012, Liu et al.; cited from earlier work.
In data set [3] the test system is P-gp. The experiment in a line: Emodin transport in jejunum in the presence of P-gp inhibitor verapamil (Ussing chamber). Particulars: rat jejunum, emodin 9.25 μM, verapamil 220 μM on mucosal side. The text has this:
(§1) The four intestinal segments including duodenum, jejunum, ileum, and colon from anesthetized rats were immediately removed by surgery and washed with KRB solution. Each section of the intestinal segments was then placed in cold (on ice), bubbled (O2:CO2 95:5) KRB buffer. The four intestinal segments were then cut into 2 cm pieces, respectively, and serosas were removed by blunt dissection. Peyer’s patches were excluded from the experiment by visually identified. The stripped tissues were mounted in chambers with exposed surface area of 0.49 cm^2. Temperature of the chambers was maintained at 37 ± 0.5°C. Each of the half-cells in the chambers was filled with 5 mL fresh KRB buffer (pH 6.5). […]
(§2) In this study, the effects of the three efflux transporters on emodin intestinal absorption were investigated. […] Changes of the bidirectional transport characteristic were measured before and after adding emodin to the mucosal side. […]
(§3) The quantifications of the compounds were performed by the TSQ Quantum Ultra Triple Quadrupole LC-MS/MS system from Thermo Fisher Scientific. […]
(§4) The Q (accumulative quantity), Papp (apparent permeability), Er (efflux ratio), Pr (Papp ratio), and Err (Er ratio) across the excited rat intestinal segments in the Ussing chamber were calculated using the following equations ([Li et al., 2012]; [Huang et al., 2016]): […]

For data set [4], the target named is T1, MRP3 (Rattus norvegicus, UniProt O88563).
T1 construct: intestinal segments including duodenum, jejunum, ileum, and colon from anesthetized rats were immediately removed by surgery; from tissue; host or cells: stripped rat intestine (jejunum and ileum in validation; jejunum for the emodin studies)
In words: Emodin transport in jejunum in the presence of MRP3 inhibitor benzbromarone (Ussing chamber). Format: in vitro ADME.
From the text: as §1, §2, §3, §4

The test system of data set [5] is P-glycoprotein (P-gp). Also noted: method as in Teng et al., 2007, 2012; Liu et al., 2012. Particulars: ref Teng et al., 2007, 2012, Liu et al.; cited from earlier work.
Data set [6] can be described thus: Absorption characteristics of emodin in rat intestinal segments (Ussing chamber).
From the text: (§5) The four intestinal segments including duodenum, jejunum, ileum, and colon from anesthetized rats were immediately removed by surgery and washed with KRB solution. Each section of the intestinal segments was then placed in cold (on ice), bubbled (O2:CO2 95:5) KRB buffer. The four intestinal segments were then cut into 2 cm pieces, respectively, and serosas were removed by blunt dissection. Peyer’s patches were excluded from the experiment by visually identified. The stripped tissues were mounted in chambers with exposed surface area of 0.49 cm^2. Temperature of the chambers was maintained at 37 ± 0.5°C. Each of the half-cells in the chambers was filled with 5 mL fresh KRB buffer (pH 6.5). Tissue viability was continuously controlled by potential difference (PD). Tissue with electrical values less than 2 mV was refused ([Moazed and Hiebert, 2007]; [Heinen et al., 2013]).
In this study, the effects of the three efflux transporters on emodin intestinal absorption were investigated. Meanwhile, the influence of emodin on intestinal P-gp, MRP2, and MRP3 functions were also discussed. Solutions with three concentrations (low, middle, and high) of emodin were filled in the mucosal or serosal compartment to measure the bidirectional transport characteristic. […] In the emodin impact experiments, digoxin, pravastatin, and teniposide were employed as P-gp, MRP2, and MRP3 substrates. Changes of the bidirectional transport characteristic were measured before and after adding emodin to the mucosal side. […]
as §3, §4

Data set [7] deals with P-gp. In words: Influence of emodin on P-gp function: digoxin bidirectional transport in the presence of emodin (Ussing chamber). In kind it is in vitro ADME. Particulars: rat jejunum, emodin 185, 370, 740 μM, digoxin as substrate.
From the text: as §5
(§6) In this study, the effects of the three efflux transporters on emodin intestinal absorption were investigated. Meanwhile, the influence of emodin on intestinal P-gp, MRP2, and MRP3 functions were also discussed. Solutions with three concentrations (low, middle, and high) of emodin were filled in the mucosal or serosal compartment to measure the bidirectional transport characteristic. […] In the emodin impact experiments, digoxin, pravastatin, and teniposide were employed as P-gp, MRP2, and MRP3 substrates. Changes of the bidirectional transport characteristic were measured before and after adding emodin to the mucosal side.
(§7) Frozen samples were adequately vortexed after thawing at the room temperature; 10 μL suitable IS solution was added to 200 μL samples; 200 μL methanol was added after a thorough vortex mixing for 30 s. The mixtures were then vortexed for 30 s and centrifuged at 15,000 rpm for 30 min. Finally, 5 μL of supernatant was injected into the LC-MS/MS system.
(§8) The quantifications of the compounds were performed by the TSQ Quantum Ultra Triple Quadrupole LC-MS/MS system from Thermo Fisher Scientific. Chromatography was carried out using an Agilent Poroshell 120 SB-C18 (2.7 μm, 2.1 mm × 100 mm) column with a Phenomenex AFO-8497 C18 pre-column, operating at 30°C. Adaptive gradient elution methods were applied for the analytes. The flow rate of the mobile phase was kept at 0.2 mL min^-1. Flow was directed to the ion spray interface. All measurements were carried out in negative ESI mode. Ion spray voltage was -2500 V. Vaporizer and capillary temperatures were set at 250 and 350°C, respectively. Auto sampler temperature was set at 10°C. Sheath gas and aux gas were set at 30 and 15 Arb, respectively. […] Peak integrations and calibrations were carried out using LC Quan 2.5.2 software from Thermo Fisher Scientific.
as §4
(§9) where Cn (nM) is the concentration of the drug at the time point (n), Q (nM) is the accumulated absorption amount, A is the exposed surface area of the intestine (0.49 cm^2), dQ/dt (nM⋅s^-1) is the amount of the drug transported, and C0 (nM) is the initial concentration of the test drug. Experiments were performed in batches, so control groups were set as one for each batch.

The target of data set [8] is MRP2 (Rattus norvegicus, UniProt Q63120). The experiment in a line: Emodin transport in jejunum in the presence of MRP2 inhibitor MK571 (Ussing chamber). As to conditions: MK571 186 μM on mucosal side.
From the text: as §1, §2, §3, §4

Data set [9] deals with T1, MRP3. In words: Influence of emodin on MRP3 function: teniposide bidirectional transport in the presence of emodin (Ussing chamber). In kind it is in vitro ADME. As to conditions: rat jejunum; for Papp at 60 μM: rat.
From the text: as §5, §6, §7, §8, §4, §9

In data set [10] the target is T1, MRP3. In words: Ussing chamber bidirectional transport, model validation for MRP3 (teniposide substrate, benzbromarone inhibitor). Format: in vitro ADME. As to conditions: rat.
From the text: as §5
Digoxin, pravastatin, and teniposide were employed as the test substrates of P-gp, MRP2, and MRP3. […] The experiments were started after 30 min equilibration time, by changing the KRB buffer on both sides; 5 mL KRB solution with different test compounds was filled in the mucosal or serosal compartment; meanwhile, equal volume fresh buffer was added to the other compartment. […] The bidirectional transport studies with specific inhibitors were assessed to validate this model whether or not suitable for P-gp, MRP2, and MRP3 studies. Samples were stored at –80°C until analysis ([Deusser et al., 2013]).
as §7, §8, §4, §9

Details of data set [11]: method as in Di et al. (2015). As to conditions: ref Di et al. (2015); cited from earlier work.

What is called Papp is a coefficient for how fast a substance crosses the barrier.

T1 sequence (O88563 whole entry): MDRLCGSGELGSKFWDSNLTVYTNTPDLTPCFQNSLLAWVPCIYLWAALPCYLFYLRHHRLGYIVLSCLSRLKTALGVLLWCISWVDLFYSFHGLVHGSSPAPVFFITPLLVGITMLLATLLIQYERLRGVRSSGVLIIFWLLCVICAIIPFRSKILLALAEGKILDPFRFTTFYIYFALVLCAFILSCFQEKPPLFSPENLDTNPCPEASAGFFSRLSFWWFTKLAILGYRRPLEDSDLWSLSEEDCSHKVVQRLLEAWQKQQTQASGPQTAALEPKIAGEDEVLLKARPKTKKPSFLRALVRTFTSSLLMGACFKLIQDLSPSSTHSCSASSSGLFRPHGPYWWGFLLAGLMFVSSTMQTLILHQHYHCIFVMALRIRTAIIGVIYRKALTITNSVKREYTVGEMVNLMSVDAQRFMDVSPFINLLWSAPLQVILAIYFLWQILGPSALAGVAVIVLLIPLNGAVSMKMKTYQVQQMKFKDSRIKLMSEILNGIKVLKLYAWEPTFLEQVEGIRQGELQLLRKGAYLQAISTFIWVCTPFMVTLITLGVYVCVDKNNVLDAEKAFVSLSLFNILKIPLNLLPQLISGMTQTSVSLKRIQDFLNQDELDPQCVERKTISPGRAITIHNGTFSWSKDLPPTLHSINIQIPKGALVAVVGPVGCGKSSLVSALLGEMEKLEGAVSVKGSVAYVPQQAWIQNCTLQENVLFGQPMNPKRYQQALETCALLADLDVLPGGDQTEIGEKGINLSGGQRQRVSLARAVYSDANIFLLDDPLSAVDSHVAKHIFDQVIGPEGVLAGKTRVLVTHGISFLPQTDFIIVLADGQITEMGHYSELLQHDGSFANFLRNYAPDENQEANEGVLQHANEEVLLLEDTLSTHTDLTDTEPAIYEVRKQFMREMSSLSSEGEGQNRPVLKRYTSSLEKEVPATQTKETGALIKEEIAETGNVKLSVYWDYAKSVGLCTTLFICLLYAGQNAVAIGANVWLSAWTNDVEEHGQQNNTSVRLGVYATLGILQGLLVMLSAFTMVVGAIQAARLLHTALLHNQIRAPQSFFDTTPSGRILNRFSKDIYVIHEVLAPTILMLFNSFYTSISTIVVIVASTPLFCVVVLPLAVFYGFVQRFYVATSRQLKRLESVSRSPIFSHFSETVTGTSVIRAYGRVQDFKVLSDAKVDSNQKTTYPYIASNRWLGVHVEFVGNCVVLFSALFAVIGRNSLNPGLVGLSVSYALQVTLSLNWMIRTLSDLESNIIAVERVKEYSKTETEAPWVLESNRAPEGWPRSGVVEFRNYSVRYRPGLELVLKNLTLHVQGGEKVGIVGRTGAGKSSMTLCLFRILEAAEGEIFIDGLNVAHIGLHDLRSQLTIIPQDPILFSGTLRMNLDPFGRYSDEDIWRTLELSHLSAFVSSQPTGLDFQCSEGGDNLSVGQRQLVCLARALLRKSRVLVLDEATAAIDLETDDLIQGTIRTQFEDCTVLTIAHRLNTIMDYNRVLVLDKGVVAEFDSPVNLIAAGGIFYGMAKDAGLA
Sequence of MRP2 (Q63120 whole entry): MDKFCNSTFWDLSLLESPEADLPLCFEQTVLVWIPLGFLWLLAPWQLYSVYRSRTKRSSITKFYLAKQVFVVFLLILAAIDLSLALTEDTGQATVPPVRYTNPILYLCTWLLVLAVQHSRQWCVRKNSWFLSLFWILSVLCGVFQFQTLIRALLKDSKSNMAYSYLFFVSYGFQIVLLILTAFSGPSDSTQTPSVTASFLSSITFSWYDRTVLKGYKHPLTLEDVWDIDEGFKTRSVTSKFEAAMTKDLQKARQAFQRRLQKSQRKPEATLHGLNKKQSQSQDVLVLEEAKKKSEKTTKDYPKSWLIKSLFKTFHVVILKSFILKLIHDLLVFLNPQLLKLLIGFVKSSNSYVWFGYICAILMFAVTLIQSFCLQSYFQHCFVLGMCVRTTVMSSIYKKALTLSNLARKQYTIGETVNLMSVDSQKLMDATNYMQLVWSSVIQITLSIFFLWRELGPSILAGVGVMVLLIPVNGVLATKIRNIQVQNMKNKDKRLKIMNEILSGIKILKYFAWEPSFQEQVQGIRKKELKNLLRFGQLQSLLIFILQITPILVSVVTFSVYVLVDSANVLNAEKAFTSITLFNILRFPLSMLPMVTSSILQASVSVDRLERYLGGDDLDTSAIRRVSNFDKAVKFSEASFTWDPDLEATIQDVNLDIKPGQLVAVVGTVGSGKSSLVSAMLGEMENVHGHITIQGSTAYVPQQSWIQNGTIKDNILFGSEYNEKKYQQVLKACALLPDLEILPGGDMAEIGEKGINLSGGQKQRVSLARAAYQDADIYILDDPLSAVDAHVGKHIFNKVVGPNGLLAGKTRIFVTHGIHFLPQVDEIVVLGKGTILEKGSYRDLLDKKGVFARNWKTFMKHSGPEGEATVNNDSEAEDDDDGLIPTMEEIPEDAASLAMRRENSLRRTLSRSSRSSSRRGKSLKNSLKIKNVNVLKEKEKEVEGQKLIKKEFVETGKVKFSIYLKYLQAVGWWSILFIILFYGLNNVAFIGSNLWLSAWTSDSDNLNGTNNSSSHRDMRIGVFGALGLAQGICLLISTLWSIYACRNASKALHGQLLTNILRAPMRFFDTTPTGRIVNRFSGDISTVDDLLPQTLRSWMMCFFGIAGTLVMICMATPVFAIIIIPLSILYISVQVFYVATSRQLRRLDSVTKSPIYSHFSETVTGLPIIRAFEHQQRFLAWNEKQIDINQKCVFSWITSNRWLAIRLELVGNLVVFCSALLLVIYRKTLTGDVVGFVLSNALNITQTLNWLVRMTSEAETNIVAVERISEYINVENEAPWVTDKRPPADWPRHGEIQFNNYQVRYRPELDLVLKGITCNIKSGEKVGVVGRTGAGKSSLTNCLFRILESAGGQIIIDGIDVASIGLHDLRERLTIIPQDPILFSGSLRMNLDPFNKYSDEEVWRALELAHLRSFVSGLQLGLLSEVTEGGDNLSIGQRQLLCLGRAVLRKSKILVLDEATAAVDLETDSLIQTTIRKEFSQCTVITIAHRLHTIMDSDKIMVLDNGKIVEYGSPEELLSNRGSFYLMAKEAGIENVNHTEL

Turning to `OC[C@H]1O[C@@H](Oc2c(O)cc(O)cc2C=Cc2ccc(O)cc2)[C@H](O)[C@@H](O)[C@@H]1O` [2,3,5,4’-tetrahydroxystilbene-2-β-D-glucoside], the “Effect on emodin absorption” value in [1] is reported as “could enhance”.

On to `Cc1cc(O)c2c(c1)C(=O)c1cc(O)cc(O)c1C2=O` [Emodin, 1,3,8trihydroxy-6-methylanthraquinone], for which, in [2], the “Substrate of MRP2” value was “substrate”. Also, in data set [3], the “Change of emodin absorption (M-S) with verapamil” value was “markedly increase” and the “Change of emodin efflux ratio with verapamil” value was “decrease”. For the same compound, the “Substrate of MRP3” value in [4] (Ussing chamber) is given as “might not be a substrate”. Moreover, in data set [4] (benzbromarone 470 μM on mucosal side), the “Change of emodin transport with benzbromarone” value was “no significant differences”. Further, the “Substrate of P-gp” value in [5] is reported as “substrate”. Further, the “Regioselectivity of intestinal absorption rates” value in data set [6] (duodenum, jejunum, ileum, colon, 9.25, 18.5 and 37 μM) is given as “no regioselectivity”. For the same compound, the “Papp values from M-S” value in data set [6] (rat intestinal segments, lowest concentration (9.25 μM)) is “very low”. The “Er (efflux ratio) of emodin” value in data set [6] (rat jejunum, at all three concentrations 9.25, 18.5 and 37 μM) is “more than five”. For the same compound, the “Effect of emodin on P-gp function” value in data set [7] is recorded as “could enhance P-gp function”. Further, in [8], the “Change of emodin Papp from mucosal to serosal side with MK571” value is “significantly increased” and the “Change of emodin efflux ratio with MK571” value is “decreased”. In addition, the “Effect of emodin on MRP3 function” value in data set [9] (emodin 185, 370, 740 μM, teniposide as substrate) was “might be an MRP3 inhibitor”.

In the case of `COc1cc([C@@H]2c3cc4c(cc3[C@@H](O[C@@H]3O[C@@H]5CO[C@@H](c6cccs6)O[C@H]5[C@H](O)[C@H]3O)[C@H]3COC(=O)[C@H]23)OCO4)cc(OC)c1O` [Teniposide], the Papp in [10] (pH 6.5, rat colon, without inhibitor, read-out: Papp M-S, control) worked out at 16 ± 11.1 ×10⁻⁶ cm/s; in data set [10] (pH 6.5, rat colon, without inhibitor, read-out: Papp S-M, control), 21.3 ± 11.9 ×10⁻⁶ cm/s; in data set [10] (pH 6.5, rat ileum, without inhibitor, read-out: Papp M-S, control) it was 12.6 ± 7.7 ×10⁻⁶ cm/s; in data set [10] (pH 6.5, rat ileum, without inhibitor, read-out: Papp S-M, control), 24.5 ± 10 ×10⁻⁶ cm/s; in data set [10] (pH 6.5, rat jejunum, without inhibitor, read-out: Papp M-S, control) it was 14 ± 4.4 ×10⁻⁶ cm/s; in data set [10] (pH 6.5, rat jejunum, without inhibitor, read-out: Papp S-M, control), 33.5 ± 14 ×10⁻⁶ cm/s. For the same compound, the Papp in data set [10] (pH 6.5, with benzbromarone 470 μM, mucosal side, rat colon, with benzbromarone 470 μM on mucosal side, read-out: Papp M-S, with inhibitor) worked out at 28.3 ± 8.4 ×10⁻⁶ cm/s; in [10] (pH 6.5, with benzbromarone 470 μM, mucosal side, rat colon, with benzbromarone 470 μM on mucosal side, read-out: Papp S-M, with inhibitor) it was 8.3 ± 1.9 ×10⁻⁶ cm/s; in data set [10] (pH 6.5, with benzbromarone 470 μM, mucosal side, rat ileum, with benzbromarone 470 μM on mucosal side, read-out: Papp M-S, with inhibitor) it was 28 ± 19.5 ×10⁻⁶ cm/s; in data set [10] (pH 6.5, with benzbromarone 470 μM, mucosal side, rat ileum, with benzbromarone 470 μM on mucosal side, read-out: Papp S-M, with inhibitor), 10.3 ± 2.9 ×10⁻⁶ cm/s; in data set [10] (pH 6.5, with benzbromarone 470 μM, mucosal side, rat jejunum, with benzbromarone 470 μM on mucosal side, read-out: Papp M-S, with inhibitor), 37.2 ± 9.7 ×10⁻⁶ cm/s; in data set [10] (pH 6.5, with benzbromarone 470 μM, mucosal side, rat jejunum, with benzbromarone 470 μM on mucosal side, read-out: Papp S-M, with inhibitor) it was 13.1 ± 6.4 ×10⁻⁶ cm/s. The “Change of Papp from S-M and Er of teniposide in the presence of emodin” value in data set [9] (teniposide 60 μM, emodin 185, 370, 740 μM) is given as “remarkably decreased”. Also, the Papp at 60 μM in data set [9] (pH 6.5, teniposide 60 μM, without emodin, read-out: Papp M-S, control) worked out at 69.4 ± 17.5 ×10⁻⁶ cm/s; in data set [9] (pH 6.5, teniposide 60 μM, without emodin, read-out: Papp S-M, control) it was 81.8 ± 15.9 ×10⁻⁶ cm/s; in data set [9] (pH 6.5, with emodin 185 μM on mucosal side, teniposide 60 μM, emodin 185 μM on mucosal side, read-out: Papp M-S in the presence of emodin), 63.2 ± 5.9 ×10⁻⁶ cm/s; in data set [9] (pH 6.5, with emodin 185 μM on mucosal side, teniposide 60 μM, emodin 185 μM on mucosal side, read-out: Papp S-M in the presence of emodin) it was 56.1 ± 5.7 ×10⁻⁶ cm/s; in data set [9] (pH 6.5, with emodin 370 μM on mucosal side, teniposide 60 μM, emodin 370 μM on mucosal side, read-out: Papp M-S in the presence of emodin), 52.5 ± 7.3 ×10⁻⁶ cm/s; in data set [9] (pH 6.5, with emodin 370 μM on mucosal side, teniposide 60 μM, emodin 370 μM on mucosal side, read-out: Papp S-M in the presence of emodin), 31.2 ± 13.2 ×10⁻⁶ cm/s. For the same compound, the Papp at 60 μM in data set [9] (pH 6.5, with emodin 740 μM on mucosal side, teniposide 60 μM, emodin 740 μM on mucosal side, read-out: Papp M-S in the presence of emodin) was determined as 91.1 ± 27.3 ×10⁻⁶ cm/s; in data set [9] (pH 6.5, with emodin 740 μM on mucosal side, teniposide 60 μM, emodin 740 μM on mucosal side, read-out: Papp S-M in the presence of emodin) it was 41.1 ± 6.2 ×10⁻⁶ cm/s.

For the compound `O=C(/C=C/C=C/c1ccc2c(c1)OCO2)N1CCCCC1` [piperine], in data set [11], the “Effect on glucuronidation metabolism of emodin” value is given as “inhibited” and the “Effect on in vivo bioavailability of emodin” value was “significantly improved”.
